Source: patent US20050228016A1, “TETRAHYDROQUINOLINES FOR MODULATING THE EXPRESSION OF EXOGENOUS GENES VIA AN ECDYSONE RECEPTOR COMPLEX” (priority 2002, published 2005)

How the values were obtained:
[1] = target: T1, Bombyx mori EcR (VP16-BmEcR, CVBE) (Bombyx mori, UniProt P49881); test: Z3 assay (HEK-293 clone Z3 with CVBE and 6x EcRE LacZ, β-galactosidase reporter); format: cell-based; settings: 48 h, average of two wells
T1 construct: expressed in transfected cells
T1 sequence (P49881 86-606): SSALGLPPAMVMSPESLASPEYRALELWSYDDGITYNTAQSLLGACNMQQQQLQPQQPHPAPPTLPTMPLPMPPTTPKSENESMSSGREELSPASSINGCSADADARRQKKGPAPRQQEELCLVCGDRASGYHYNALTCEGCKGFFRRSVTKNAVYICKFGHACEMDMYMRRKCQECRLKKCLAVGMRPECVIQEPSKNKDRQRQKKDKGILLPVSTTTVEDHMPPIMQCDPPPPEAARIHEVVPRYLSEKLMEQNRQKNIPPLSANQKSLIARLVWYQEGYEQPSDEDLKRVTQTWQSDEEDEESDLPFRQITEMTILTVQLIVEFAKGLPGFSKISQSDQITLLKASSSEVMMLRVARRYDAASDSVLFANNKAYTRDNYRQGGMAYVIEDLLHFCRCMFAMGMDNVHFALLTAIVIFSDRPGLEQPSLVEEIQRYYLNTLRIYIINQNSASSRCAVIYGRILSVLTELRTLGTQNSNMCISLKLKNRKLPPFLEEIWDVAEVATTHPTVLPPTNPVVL
Text: Dr. F. Gage provided a population of stably transformed cells containing CVBE and 6× EcRE as described in (Suhr et. al. 1998). Human 293 kidney cells, also referred to as HEK-293 cells, were sequentially infected with retroviral vectors encoding first the switch construct CVBE, and subsequently the reporter construct 6× EcRE Lac Z. The switch construct contained the coding sequence for amino acids 26-546 from Bombyx nori EcR (BE) (Iatrou) inserted in frame and downstream of the VP16 transactivation domain (VBE). A synthetic ATG start codon was placed under the control of cytomegalovirus (CVBE) immediate early promoter and flanked by long terminal repeats (LTR). The reporter-construct contained six copies of the ecdysone response element (EcRE) binding site placed upstream of LacZ and flanked on both sides with LTR sequences (6× EcRE).
Dilution cloning was used to isolate individual clones. Clones were selected using 450 μg/ml G418 and 100 ng/ml puromycin. Individual clones were evaluated based on their response in the presence and absence of test ligands.
Human 293 kidney cells stably transformed with CVBE and 6× EcRE lack were maintained in Minimum Essential Medium (Mediates, 10-010-CV) containing 10%.FBS (Life Technologies, 26140-087),[…] G418 (Mediates, 30-234-CR), and […] (Sigma, P-7255), at 37° C. in an atmosphere containing 5% CO2 and were subculture when they reached 75% confluence.
Z3 cells were seeded into 96-well tissue culture plates at a concentration of 2.5×10^3 cells per well and incubated at 37° C. in 5% CO2 for twenty-four hours. Stock solutions of ligands were prepared in DMSO. Ligand stock solutions were diluted 100.fold in media and 50 μL of this diluted ligand solution (33 μM) was added to cells.
Reporter gene expression was evaluated 48 hours after treatment of cells, β-galactosidase activity was measured using Gal Screen™ bioluminescent reporter gene assay system from Tropix (GSY1000).
Flanking both constructs are long terminal repeats, G418 and puromycin are selectable markers, CMV is the cytomegalovirus promoter, VBE is coding sequence for amino acids 26-546 from Bombyx mori EcR inserted downstream of the VP16 transactivation domain, 6× EcRE is six copies of the ecdysone response element, lacZ encodes for the reporter enzyme β-galactosidase.

Gal4DBD/AaEcR (DEF) = target: T2, Gal4DBD/AaEcR (DEF) (Aedes aegypti, UniProt P49880); test: cell-based; format: cell-based; settings: 33 μM; 3T3 cells; 48 h; average of two wells
T2 construct: The wildtype D, E, and F domains from mosquito Aedes aegypti EcR; expressed in transfected cells; host or cells: 3T3 cells
Method in brief: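 Mouse 3T3 cells transiently co-transfected with Gal4DBD/AaEcR (DEF) and pFRLuc (5× GAL4 response element, firefly luciferase reporter). Ligand added in serum medium 4 h after transfection; single-dose testing at 33 μM.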

T2 sequence (P28704 286-520 A311G/G315S/G445S/I449V): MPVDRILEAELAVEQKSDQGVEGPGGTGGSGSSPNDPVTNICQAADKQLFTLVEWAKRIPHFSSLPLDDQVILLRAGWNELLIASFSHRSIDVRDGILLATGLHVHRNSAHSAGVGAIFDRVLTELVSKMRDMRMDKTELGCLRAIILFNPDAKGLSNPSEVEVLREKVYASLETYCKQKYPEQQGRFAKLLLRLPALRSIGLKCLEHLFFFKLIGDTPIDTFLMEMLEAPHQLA
T2 sequence (P49880 405-776): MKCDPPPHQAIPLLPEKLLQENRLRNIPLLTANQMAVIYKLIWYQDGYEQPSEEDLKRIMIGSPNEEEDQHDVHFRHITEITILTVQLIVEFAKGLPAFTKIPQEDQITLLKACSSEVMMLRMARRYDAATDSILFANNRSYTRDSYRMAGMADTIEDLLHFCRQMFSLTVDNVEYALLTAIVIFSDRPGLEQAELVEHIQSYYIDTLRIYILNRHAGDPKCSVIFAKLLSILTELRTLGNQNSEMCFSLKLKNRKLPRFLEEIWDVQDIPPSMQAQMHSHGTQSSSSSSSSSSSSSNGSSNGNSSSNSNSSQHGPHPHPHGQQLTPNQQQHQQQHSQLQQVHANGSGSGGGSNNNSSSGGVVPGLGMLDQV

Structure (SMILES)	Fold Induction Average, Z3V1 Assay 33 μM [1] [fold]	Fold Induction Average, AA_3T3V1 Assay 33 μM (Gal4DBD/AaEcR (DEF)) [fold]
CC1CC(Nc2ccccc2)c2ccccc2N1C(=O)c1ccc(Cl)c(F)c1 (centres unmarked) [Compound I-105]	30	369
CC1CC(Nc2ccccc2)c2ccccc2N1C(=O)c1ccnc(Cl)c1 (centres unmarked) [Compound I-106]	83	1053
CCc1c(OC)cccc1C(=O)N1c2ccccc2C(Nc2ccccc2)CC1C (centres unmarked) [Compound I-107]	6	636
Cc1ccc(NC2CC(C)N(C(=O)c3ccno3)c3ccc(C)cc32)cc1 (centres unmarked) [Compound I-109]	1	33
Cc1ccc(NC2CC(C)N(C(=O)c3ccc(Cl)c(F)c3)c3ccc(C)cc32)cc1 (centres unmarked) [Compound I-110]	2	782
Cc1ccc(NC2CC(C)N(C(=O)c3ccnc(Cl)c3)c3ccc(C)cc32)cc1 (centres unmarked) [Compound I-111]	16	527
CCCC(=O)N1c2ccccc2C(N(C(=O)c2ccccc2)c2ccc(F)cc2)CC1C (centres unmarked) [Compound I-126]	1	1
COc1cccc(NC2CC(C)N(C(=O)c3ccccc3)c3ccccc32)c1 (centres unmarked) [Compound I-137]	1	64
COc1cccc(C(=O)N(c2ccccc2)C2CC(C)N(C(C)=O)c3ccccc32)c1 (centres unmarked) [Compound I-142]	1	1
Cc1ccc(C(=O)N2c3ccccc3C(N(C(=O)c3ccc(F)cc3)c3ccccc3)CC2C)cc1 (centres unmarked) [Compound I-143]	1	27
CC1CC(Nc2ccccc2)c2ccccc2N1C(=O)COc1ccc(F)cc1 (centres unmarked) [Compound I-159]	1	12
CC1CC(Nc2ccccc2)c2ccccc2N1C(=O)c1ccc(Cl)c(Cl)c1 (centres unmarked) [Compound I-165]	1	1
CC1CC(Nc2ccccc2)c2ccccc2N1C(=O)c1ccc(I)cc1 (centres unmarked) [Compound I-168]	3	401
CC1CC(Nc2ccccc2)c2ccccc2N1C(=O)CCC1CCCCC1 (centres unmarked) [Compound I-170]	1	2
CCOC(=O)C(=O)N1c2ccccc2C(Nc2ccccc2)CC1C (centres unmarked) [Compound I-171]	1	1
CC1CC(Nc2ccccc2)c2ccccc2N1C(=O)c1ccc(NS(C)(=O)=O)cc1 (centres unmarked) [Compound I-175]	5	1
CC(C)C(=O)N1c2ccccc2C(N(C(=O)c2ccccc2)c2ccc([N+](=O)[O-])cc2)CC1C (centres unmarked) [Compound I-178]	1	1
CCC(=O)N1c2ccccc2C(N(C(=O)c2ccc([N+](=O)[O-])cc2)c2ccccc2)CC1C (centres unmarked) [Compound I-183]	2	1
Cc1ccc(C(=O)N2c3ccc(F)cc3C(N(C(=O)c3ccc(C)c(F)c3)c3ccc(F)cc3)CC2C)cc1F (centres unmarked) [Compound I-197]	1	686
